The test system of series [1] is Human breast cancer cells (BCAP-37). As to the kind of experiment: Human breast cancer xenograft in nude mice, topical. To be noted: day 42, 30 μl of 5% (1.5 mg) topically every 8 hours from day 14; for Tumor size: control 800 ± 100; for Mouse weight: control 22 ± 2. As to the method:
Human breast cancer cells (BCAP-37, 2-3 mm^3 of tumor tissue was used in each mouse) are subcutaneously xenografted into the front leg of nude mice (BALB, 12 groups, 7 mice each group). […] Then 30 μl of 5% (equal to 1.5 mg of the HPPs) diethylaminoethyl acetylsalicylate.acetylsalicylic acid salt (P-1, in acetone); 1-piperidinepropyl 2[(2,6-dichlorophenyl)amino]benzene acetate.AcOH (P-2, in water), 1-pyrrolidinepropyl 2-(3-benzoylphenyl) propionate.AcOH (P-3, in water), 4-piperidinemethyl 2-(3-phenoxyphenyl)propionate.AcOH (P-4, in water), 3-piperidinemethyl 2-(ρ-isobutylphenyl) propionate.AcOH (P-5, in water), diethylaminoethyl 1-(p-chlorobenzoyl)-5-methoxy-2-methylindole 3-acetate.AcOH (P-11, in water), 2-(4-morpholinyl)ethyl (Z)-5-fluoro-2-methyl-1-[(4-methylsulfinyl) phenylmethylene]-1H-indene-3-acetate.AcOH (P-12, in water), diethylaminoethyl
In general terms: Xenograft models place foreign cells or tissue in a host animal.

Series [2] relates to rats. As to the kind of experiment: Antipyretic activity, E. coli suspension as pyrogen. The class given is in vivo. The following applies: in °C (unit assumed). As to the method:
Rats are administered with sterilized E. coli suspension as a pyrogen. Each group of rats are administered with a prodrug compounds or parent compounds at a dosage specified below. The prodrug compounds are administered either orally or transdermally. The parent compounds are administered orally.

Series [3] concerns human skin tissue. The following applies: pH 7.4.
Series [4] in a line: Plasma levels after transdermal administration to hairless mice. Format: in vivo. To be noted: mouse, in vivo. As to the method:
Tested compounds (20% solution or suspension in 1 mL isopropanol) are administered transdermally to the skin of intact hairless mice. The plasma levels of the parent compounds are determined by HPLC.

The subject of series [5] is mice. As to the kind of experiment: Analgesic activity, acetic acid writhing. Format: in vivo. How it is done:
The prodrug compounds are administered either transdermally or orally. The parent compounds are administered orally. The number of writhing that occurred when mice are administered the acetic acid solution are counted, and the rate of inhibition based on the control group which was not pretreated with any test compounds is calculated. […] The A group is the control group.
On the technique in general: In writhing tests, fewer writhes than in controls are read as antinociception.

Series [6] has as its system rat. To be noted: rats.
Experimental: The acute toxicity of the prodrug compounds and parent compounds are measured by LD50 of rat.
In series [7] the test system is Human colon cancer cells (LS174J). As to the kind of experiment: Human colon cancer xenograft in nude mice, topical. The following applies: day 30, about 30 μl of 5% solution (1.5 mg) topically applied. From the text:
Human colon cancer cells (LS174J, 2-3 mm^3 of tumor tissue was used in each mouse) are subcutaneously xenografted into the front leg of nude mice (BALB).

The mark [8] stands for this setting: 50 mg/kg transdermally, 60 minutes before acetic acid.
[9] abbreviates: 100 mg/kg transdermally, 30 min before acetic acid.
Where [10] appears, read: 100 mg/kg transdermally, 60 minutes before acetic acid.
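For LD50 of HPP in this document: acute toxicity in rats expressed as LD50, determined for both prodrugs and their parent compounds.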

For the molecule `CN(C)CCCC(=O)OC1=C(C(=O)Nc2ccccn2)N(C)S(=O)(=O)c2ccccc21.Cl` [4-N,N-dimethylaminobutyryloxy-2-methyl-N-2-pyridinyl-2H,1,2-benzothiazine-3-carboxamide 1,1-dioxide.HCl], in series [1], the Tumor size was 390 ± 50 mm^3. Also, in series [2] (25 mg/kg transdermally), the “body temperature, t = 0 min” value is reported as 37.57 ± 0.06; the “body temperature, t = 90 min” value was determined as 36.51 ± 0.05; the “body temperature, t = 180 min” value came to 36.40 ± 0.06; the “body temperature, t = 270 min” value is 36.45 ± 0.07. Also, in series [3], the “In vitro penetration rate (apparent flux), prodrug compounds” value (“In vitro penetration rate” for short) is reported as 1700 μg/cm^2/h. In series [4], the “Peak plasma concentration of parent compound after prodrug compound” value (“Peak plasma concentration” below) came out at 20 mg/L. Further, in series [5] (setting [8]), the “% (rate of writhing inhibition)” value was 55% and the “No. of Writhing” value was 15.6. For the same molecule, the “LD50 of HPP” value in series [6] turned out to be 550 mg/kg.
Regarding `CC(=O)O.O=C(Cc1ccccc1Nc1c(Cl)cccc1Cl)OCCCN1CCCCC1` [P-2, 1-piperidinepropyl 2[(2,6-dichlorophenyl)amino]benzene acetate.AcOH], in series [1], the Mouse weight is on record as 22 ± 2 g and the Tumor size came to 180 ± 50 mm^3. In series [7], this molecule showed a Mouse weight of 22 ± 2 g and a Tumor size of 480 ± 180 mm^3.
For `CC(=O)O.CC(C(=O)OCCCN1CCCC1)c1cccc(C(=O)c2ccccc2)c1` (centres unmarked) [P-3, 1-pyrrolidinepropyl 2-(3-benzoylphenyl) propionate.AcOH], the Tumor size in series [1] is 200 ± 50 mm^3; in series [7], 500 ± 150 mm^3.
As for `CC(=O)O.CC(C(=O)OCC1CCNCC1)c1cccc(Oc2ccccc2)c1` (centres unmarked) [P-4, 4-piperidinemethyl 2-(3-phenoxyphenyl)propionate.AcOH], the values for the Tumor size in series [1] and in series [7] were 180 ± 50 mm^3 and 480 ± 120 mm^3, respectively.
With `CC(=O)O.CC1=C(CC(=O)OCCN2CCOCC2)c2cc(F)ccc2/C1=C\c1ccc([S+](C)[O-])cc1` (centres unmarked) [P-12, 2-(4-morpholinyl)ethyl (Z)-5-fluoro-2-methyl-1-[(4-methylsulfinyl)phenylmethylene]-1H-indene-3-acetate.AcOH], the Tumor size in series [1] came out at 250 ± 50 mm^3.
Regarding `CC(=O)O.Nc1c(CC(=O)OCCN2CCOCC2)cccc1C(=O)c1ccccc1` [P-16, 2-(4-morpholinyl)ethyl 2-amino-3-benzoylbenzeneacetate.AcOH], the Tumor size in series [7] was determined as 550 ± 150 mm^3.
For `CC(=O)O.O=C(OCCCN1CCCC1)c1ccccc1Nc1cccc(C(F)(F)F)c1` [P-48], in series [1], the Mouse weight was determined as 22 ± 3 g and the Tumor size is on record as 290 ± 50 mm^3.
Regarding `CC(=O)O.CCN(CC)CCOC(=O)Cc1ccccc1Oc1ccc(Cl)cc1Cl` [diethylaminoethyl 2-(2,4-dichlorophenoxy)benzeneacetate.AcOH], the Tumor size in series [1] is reported as 280 ± 50 mm^3. In series [2] (100 mg/kg transdermally), the “body temperature, t = 0 min” value came to 37.22 ± 0.06; the “body temperature, t = 90 min” value amounted to 36.65 ± 0.06; the “body temperature, t = 180 min” value is recorded as 36.58 ± 0.08; the “body temperature, t = 270 min” value is 36.56 ± 0.07. Besides, the “In vitro penetration rate” value in series [3] stood at 1500 μg/cm^2/h. For the same molecule, in series [4], the “Peak plasma concentration” value is listed as 20 mg/L and the “t, time to peak plasma level of parent compound after prodrug compound” value (“t, time to peak plasma level” for short) worked out at 50 min. Further, in series [5] (setting [9]), the “% (rate of writhing inhibition)” value was found to be 59% and the “No. of Writhing” value turned out to be 14.2. Besides, in series [6], the “LD50 of HPP” value was 200 mg/kg.
For `CC(=O)O.CCN(CC)CCOC(=O)C(C)c1ccc2c(c1)C(=O)Cc1cc(C)ccc1O2` (centres unmarked) [diethylaminoethyl 2-(8-methyl-10, 11-dihydro-11-oxodibenz(b,f)oxepin-2-yl)propionate.AcOH], the Tumor size in series [1] is recorded as 250 ± 50 mm^3. For the same molecule, in series [2] (100 mg/kg transdermally), the “body temperature, t = 0 min” value was 37.26 ± 0.07; the “body temperature, t = 90 min” value is reported as 36.80 ± 0.06; the “body temperature, t = 180 min” value was 36.70 ± 0.05; the “body temperature, t = 270 min” value is reported as 36.57 ± 0.08. Also, the “In vitro penetration rate” value in series [3] was found to be 4100 μg/cm^2/h. Further, in series [4], the “Peak plasma concentration” value was 2000 mg/L and the “t, time to peak plasma level” value turned out to be 50 min. For the same molecule, in series [5] (setting [9]), the “% (rate of writhing inhibition)” value stood at 61% and the “No. of Writhing” value turned out to be 13.8.
Regarding `CC(=O)O.CCN(CC)CCOC(=O)C(C)c1ccc2c(c1)CC(=O)c1ccccc1S2` (centres unmarked) [diethylaminoethyl 2-(10, 11-dihydro-10-oxodibenzo(b,f)thiepin-2-yl)propionate.AcOH], in series [2] (100 mg/kg transdermally), the “body temperature, t = 0 min” value is on record as 37.25 ± 0.06; the “body temperature, t = 90 min” value is listed as 36.71 ± 0.05; the “body temperature, t = 180 min” value was 36.65 ± 0.08; the “body temperature, t = 270 min” value is reported as 36.64 ± 0.07. In addition, in series [7], the Tumor size is listed as 480 ± 180 mm^3. For the same molecule, the “In vitro penetration rate” value in series [3] stood at 3700 μg/cm^2/h. In series [4], the “Peak plasma concentration” value was determined as 2000 mg/L and the “t, time to peak plasma level” value is 50 min. In addition, in series [5] (setting [9]), the “% (rate of writhing inhibition)” value is 59% and the “No. of Writhing” value is given as 14.2.
As for `CC(=O)O.CCN(CC)CCOC(=O)c1ccccc1Nc1cccc(C)c1C` [diethylaminoethyl 2-[(2,3-dimethylphenyl)amino]benzoate.AcOH], in series [2] (100 mg/kg transdermally), the “body temperature, t = 0 min” value is 37.35 ± 0.06; the “body temperature, t = 90 min” value is on record as 36.71 ± 0.05; the “body temperature, t = 180 min” value is recorded as 36.60 ± 0.08; the “body temperature, t = 270 min” value is reported as 36.59 ± 0.07. Besides, the Tumor size in series [7] came to 650 ± 250 mm^3. Moreover, the “In vitro penetration rate” value in series [3] is 2100 μg/cm^2/h. Further, in series [4], the “Peak plasma concentration” value is on record as 20 mg/L and the “t, time to peak plasma level” value amounted to 50 min. Further, in series [5] (setting [10]), the “% (rate of writhing inhibition)” value stood at 55% and the “No. of Writhing” value was 15.6. Moreover, the “LD50 of HPP” value in series [6] is 900 mg/kg.
Take `CC(=O)O.CCN(CC)CCOC(=O)c1ccccc1Nc1c(Cl)ccc(C)c1Cl` [diethylaminoethyl 2-[(2,6-dichloro-3-methylphenyl)amino]benzoate.AcOH]: in series [2] (100 mg/kg transdermally), the “body temperature, t = 0 min” value worked out at 37.28 ± 0.06; the “body temperature, t = 90 min” value was 36.68 ± 0.05; the “body temperature, t = 180 min” value is reported as 36.62 ± 0.08; the “body temperature, t = 270 min” value was 36.58 ± 0.07. Besides, the Tumor size in series [7] is recorded as 490 ± 150 mm^3. Besides, the “In vitro penetration rate” value in series [3] came to 2000 μg/cm^2/h. Also, in series [4], the “Peak plasma concentration” value came to 20 mg/L and the “t, time to peak plasma level” value stood at 50 min. In series [5] (setting [10]), the “% (rate of writhing inhibition)” value is 59% and the “No. of Writhing” value came to 14.2. Besides, the “LD50 of HPP” value in series [6] was 1000 mg/kg.
For the molecule “N-(2-thiazolyl)-4-N,N-dimethylaminobutyryloxy-2-methyl-2H,1,2-benzothiazine-3-carboxamide 1,1-dioxide.HCl”, in series [2] (25 mg/kg transdermally), the “body temperature, t = 0 min” value is 37.50 ± 0.07; the “body temperature, t = 90 min” value came to 36.61 ± 0.04; the “body temperature, t = 180 min” value was 36.50 ± 0.07; the “body temperature, t = 270 min” value came out at 36.60 ± 0.05. The molecule also gave a Tumor size in series [7] of 690 ± 250 mm^3. In addition, the “In vitro penetration rate” value in series [3] was determined as 1500 μg/cm^2/h. In series [4], the “Peak plasma concentration” value turned out to be 20 mg/L and the “t, time to peak plasma level” value worked out at 50 min. In addition, in series [5] (setting [8]), the “% (rate of writhing inhibition)” value worked out at 55% and the “No. of Writhing” value is recorded as 15.7. The “LD50 of HPP” value in series [6] is 670 mg/kg.

For the origin of these results see patent publication US20210353579A1, “HIGH PENETRATION COMPOSITIONS AND USES THEREOF” (Techfields Pharma Co., Ltd., priority 2006, published 2021).
